We go through 28 compounds from patent US20110105544A1, “CARBOXYLIC DERIVATIVES FOR USE IN THE TREATMENT OF CANCER” (priority 2007, published 2011).

Experiment [1] deals with human colon cancer cell line HCT116. The experiment in a line: alamarBlue viability assay, HCT116. Type of experiment: cell-based. The settings on record: HCT-116, 72 hours, dose required to inhibit cell growth by 50%. On the procedure: (§1) The human colon cancer cell line HCT116 and the human breast cancer cell line MCF-7 were from the American Type Culture Collection (ATCC; CCL-247 and HTB-22, respectively).
(§2) The HCT116 cell line was maintained in DMEM GlutaMAX (Invitrogen) supplemented with 10% fetal calf serum and the MCF7 cell line was maintained in RPMI1640 GlutaMAX (Invitrogen) containing 1 mM sodium piruvate and 10% fetal calf serum.
(§3) Cells were grown in a humidified incubator at 37° C. in 5% CO2.
(§4) Cells were plated in 96-well plates at a density of 6000 cells/well in 100 μl medium 24 h before addition of drugs. […] To do so, a drugs-dilution plate at twice the screening concentrations was prepared. 72 hours later, alamarBlue (Biosource, Invitrogen) viability assay was performed following manufacturer's protocol. In brief, alamarBlue diluted in media was added to cells to have a 5% solution. Cells were incubated at 37° C., 3 hours and at room temperature, 30 min. Cells with no drug and, cells with no drug and lysed with triton X-100 were used as controls. Fluorescence was monitored at 530 nm excitation and 590 nm emission wavelengths. Results were quantified using Infinite F200 Microplate Reader (Tecan Group, Ltd.). EC50 were calculated as the dose of drugs required to inhibit cell growth by 50%, with Origin 7.0 computer program.

The target of experiment [2] is T1, human recombinant HDAC 2 (Homo sapiens, UniProt Q92769).
T1 construct: purchased BPS Bioscience 50002
Briefly: HDAC inhibition assay (Fluor de Lys), HDAC2. Type of experiment: biochemical. The settings on record: inhibitor-protein incubation 2 hours, reaction 1 h 30 min, 37° C. The protocol:
(§5) All assays were carried out in the assay buffer: 50 mM Tris/Cl, pH 8.0, 137 mM NaCl, 2.7 mM KCl, 1 mM MgCl2).
(§6) Reactions were carried out in a 96-wells microplate (Corning 96 well Flat Bottom Non-binding surface (black) ref. 3651).
(§7) Potential inhibitors were added after five fold serial dilutions in DMSO. Final DMSO concentration in the assay microplate was kept at 2%.
(§8) Afterwards, human recombinant HDAC1, HDAC 2 or HDAC 8 were added up to […] respectively in assay buffer. When necessary, the mixture was incubated at room temperature prior the addition of substrate.
(§9) Total reaction volume of 50 μl. Human recombinant HDACs could be acquired from commercial sources (HDAC1: ref. #50001, BPS Bioscience™; HDAC 2: ref. #50002, BPS Bioscience™; HDAC 8: ref. #50008, BPS Bioscience™).
(§10) Reactions were stopped with 50 μl Developer (KI-105 Fluor de Lys™, BIOMOL®) with 2 μmol/L trichostatin A (TSA, final concentration 1 μmol/L). After 20 minutes at 37° C., fluorescence (excitation 360 nm, emission 460 nm) was measured using an Infinite F200 fluorimeter (Tecan). Background was determined in reactions using substrate in the absence of enzyme.
(§11) IC50 values are defined as the compound concentration at which the deacetylase activity is 50% inhibited. In these assays the following grading was used (I: IC50≦10 μM; II: 10 μM<IC50≦100 μM; III: 100 μM<IC50≦1 mM) The results obtained are summarized in Table 4.

Experiment [3] deals with T2, human recombinant HDAC 8 (Homo sapiens, UniProt Q9BY41).
T2 construct: purchased BPS Bioscience 50008
T2 sequence (Q9BY41 1-377): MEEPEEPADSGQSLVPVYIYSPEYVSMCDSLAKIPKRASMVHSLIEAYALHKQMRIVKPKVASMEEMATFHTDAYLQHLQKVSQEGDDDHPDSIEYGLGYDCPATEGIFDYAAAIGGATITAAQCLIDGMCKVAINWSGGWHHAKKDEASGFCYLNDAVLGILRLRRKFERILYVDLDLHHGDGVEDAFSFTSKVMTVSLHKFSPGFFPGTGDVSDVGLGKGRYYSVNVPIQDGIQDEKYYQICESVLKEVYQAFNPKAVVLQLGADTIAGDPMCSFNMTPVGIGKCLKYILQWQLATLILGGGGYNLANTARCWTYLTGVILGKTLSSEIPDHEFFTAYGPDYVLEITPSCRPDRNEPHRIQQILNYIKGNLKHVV
The experiment in a line: HDAC inhibition assay (Fluor de Lys), HDAC8. Type of experiment: biochemical. The settings on record: inhibitor-protein incubation 0 hours, reaction 3 hours, 37° C. The protocol:
as §5, §6, §7, §8, §9, §10, §11

The test system of experiment [4] is human breast cancer cell line MCF-7. Briefly: alamarBlue viability assay, MCF-7. Type of experiment: cell-based. The settings on record: MCF7, 72 hours, dose required to inhibit cell growth by 50%. On the procedure:
as §1, §2, §3, §4

Structures are written as SMILES. pEC50, pIC50: −log10 of the molar value. Where a name gives a salt, the structure may show the parent alone.

T1 sequence (Q92769 whole entry): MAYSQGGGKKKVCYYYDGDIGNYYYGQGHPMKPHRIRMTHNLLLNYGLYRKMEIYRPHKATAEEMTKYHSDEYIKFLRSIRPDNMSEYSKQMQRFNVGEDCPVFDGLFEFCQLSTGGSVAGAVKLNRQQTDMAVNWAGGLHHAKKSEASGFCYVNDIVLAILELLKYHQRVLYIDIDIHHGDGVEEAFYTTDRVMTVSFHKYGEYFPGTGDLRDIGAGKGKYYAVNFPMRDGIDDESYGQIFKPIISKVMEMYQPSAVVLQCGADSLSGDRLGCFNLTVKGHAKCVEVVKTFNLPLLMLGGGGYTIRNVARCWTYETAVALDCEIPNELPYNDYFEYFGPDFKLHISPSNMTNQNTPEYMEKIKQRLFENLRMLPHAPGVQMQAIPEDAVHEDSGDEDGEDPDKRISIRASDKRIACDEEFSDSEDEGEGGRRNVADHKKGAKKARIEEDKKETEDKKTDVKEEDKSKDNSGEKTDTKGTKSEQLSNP

In the case of `O=C(O)C(CCCc1ccc2ccccc2c1)CCc1ccccc1` (stereo not shown) [Example 22, 5-(2-Naphthyl)-2-(2-phenylethyl)pentanoic acid], in experiment [1], the pEC50 was 4.02. The pIC50 was 3.00 to 4.00 in experiment [2] and 4.00 to 5.00 in experiment [3].
With `COc1ccc(CCC(CCCc2ccccc2)C(=O)O)cc1` (stereo not shown) [Example 57, 2-[2-(4-Methoxyphenyl)ethyl]-5-phenylpentanoic acid], the pEC50 in experiment [1] is 3.62. Also, the results for the pIC50 in experiment [2] and in experiment [3] were 3.00 to 4.00 and 4.00 to 5.00, respectively.
`CCc1ccc(CCC(CCCc2cccc(NC(=O)c3ccc(N(C)C)cc3)c2)C(=O)O)cc1` (stereo not shown) [Example 49, 5-(3-{[4-(Dimethylamino)benzoyl]amino}phenyl)-2-[2-(4-ethylphenyl)ethyl]pentanoic acid] gave a pEC50 in experiment [1] of 3.85. In addition, the pIC50 was 3.00 to 4.00 in experiment [2] and ≥ 5.00 in experiment [3].
The corresponding values for `CCCC(CCCc1ccccc1)C(=O)O` (stereo not shown) [Example 35, 5-Phenyl-2-propylpentanoic acid] are 2.89, 3.00 to 4.00 and 4.00 to 5.00.
`CN(C)c1ccc(C(=O)Nc2cccc(CCCC(CCc3ccccc3)C(=O)O)c2)cc1` (stereo not shown) [Example 24, 5-[3-{[4-(dimethylamino)benzoyl]amino}phenyl]-2-(2-phenylethyl)pentanoic acid hydrochloride] showed a pEC50 in experiment [1] of 4.12. Also, the values for the pIC50 in experiment [2] and in experiment [3] were 4.00 to 5.00 and ≥ 5.00, respectively.
On to `CCCC(CCc1ccccc1)C(=O)O` (stereo not shown) [Example 7, 2-(2-Phenylethyl)pentanoic acid], for which the pEC50 in experiment [4] is 2.73; in experiment [1], 3.17. For the same compound, the negative-log IC50 (pIC50) in experiment [2] was 3.00 to 4.00; in experiment [3], 4.00 to 5.00.
With `CC(CCc1ccccc1)C(=O)O` (stereo not shown) [Example 3, 2-Methyl-4-phenylbutanoic acid], the pEC50 in experiment [4] is < 2.30; in experiment [1] it was 2.35. In addition, the pIC50 in experiment [3] was 3.00 to 4.00.
For `CNS(=O)(=O)c1ccc(CCCC(CCc2ccccc2)C(=O)O)cc1` (stereo not shown) [Example 13, 5-(4-[(Methylamino)sulfonyl]phenyl)-2-(2-phenylethyl)pentanoic acid], the values for the pEC50 in experiment [4] and in experiment [1] were 2.74 and 2.62, respectively. For the same compound, in experiment [3], the pIC50 was 3.00 to 4.00.
With `COC(=O)C(C)CCc1ccccc1` (stereo not shown) [Example 2, methyl 2-methyl-4-phenylbutanoate], the pEC50 in experiment [4] was 3.16; in experiment [1], 3.62.
For `CCC(CCc1ccccc1)C(=O)OC` (stereo not shown) [Example 4, Methyl 2-ethyl-4-phenylbutanoate], the pEC50 in experiment [4] is 3.45; in experiment [1], 3.98.
On to `CC(=O)Nc1ccc(CCC(CCCc2ccccc2)C(=O)O)cc1` (stereo not shown) [Example 31, 2-{2-[4-(Acetylamino)phenyl]ethyl}-5-phenylpentanoic acid], for which the figures for the pIC50 in experiment [2] and in experiment [3] were 3.00 to 4.00 and 4.00 to 5.00, respectively.
Take `O=C(O)C(CCCc1cccc(S(=O)(=O)NCc2ccccc2)c1)CCc1ccccc1` (stereo not shown) [Example 27, 5-(3-[(Benzylamino)sulfonyl]phenyl)-2-(2-phenylethyl)pentanoic acid]: the pEC50 in experiment [1] was 3.85. Also, the pIC50 in experiment [2] and in experiment [3] was 4.00 to 5.00 in each case.
In turn, `O=C(O)C(CCCc1cccc2ccccc12)CCc1ccccc1` (stereo not shown) [Example 23, 5-(1-Naphthyl)-2-(2-phenylethyl)pentanoic acid] had a pEC50 in experiment [1] of 4.17. Besides, the pIC50 in experiment [2] and in experiment [3] was 4.00 to 5.00 throughout.
On to `O=C(O)C(CCCc1ccccc1)CCc1ccc(-c2cccnc2)cc1` (stereo not shown) [Example 77, 2-[2-(4-Pyridin-3′-ylphenyl)ethyl]-5-phenylpentanoic acid], for which the pEC50 in experiment [1] is 4.05. Further, the pIC50 in experiment [2] was 4.00 to 5.00; in experiment [3], ≥ 5.00.
In experiment [1], `CCc1ccc(CCC(CCCc2ccccc2)C(=O)O)cc1` (stereo not shown) [Example 45, 2-[2-(4-Ethylphenyl)ethyl]-5-phenylpentanoic acid] showed a pEC50 of 3.78. Besides, the values for the pIC50 in experiment [2] and in experiment [3] were 4.00 to 5.00 and ≥ 5.00, respectively.
Consider `O=C(O)C(C/C=C/c1ccccc1)CCc1ccccc1` (stereo not shown) [Example 21, (4E)-5-Phenyl-2-(2-phenylethyl)pent-4-enoic acid], for which, in experiment [1], the pEC50 was 3.69. In addition, the values for the pIC50 in experiment [2] and in experiment [3] were 3.00 to 4.00 and 4.00 to 5.00, respectively.
In experiment [4], `COC(=O)C(CCc1ccccc1)Cc1ccccc1` (stereo not shown) [Example 8, Methyl 2-benzyl-4-phenylbutanoate] showed a pEC50 of 2.30.
In experiment [1], `O=C(O)C(CCCc1cccc(S(=O)(=O)Nc2ccccc2)c1)CCc1ccccc1` (stereo not shown) [Example 39] showed a pEC50 of 2.92. Besides, in experiment [3], the pIC50 was 3.00 to 4.00.
Compound `CNS(=O)(=O)c1ccc(CCCC(CCc2ccccc2)C(=O)O)s1` (stereo not shown) [Example 26, 5-{5-[(Methylamino)sulfonyl]thien-2-yl}-2-(2-phenylethyl)pentanoic acid] showed a pEC50 in experiment [1] of 2.77. The pIC50 in experiment [3] is 3.00 to 4.00.
The corresponding values for `O=C(O)C(CCCc1ccccc1)CCc1cccc(O)c1` (stereo not shown) [Example 30, 2-[2-(3-Hydroxyphenyl)ethyl]-5-phenylpentanoic acid] are 4.24 and 3.00 to 4.00.
Turning to `CCC(CCc1ccccc1)C(=O)O` (stereo not shown) [Example 5, 2-Ethyl-4-phenylbutanoic acid], the pEC50 in experiment [4] is 2.85; in experiment [1] it was 2.62.
On to `Cc1ccc(NS(=O)(=O)c2cccc(C#CCC(CCc3ccccc3)C(=O)O)c2)cc1` (stereo not shown) [Example 38, 5-[3-(4-Methylanilinosulfonyl)phenyl]-2-(2-phenylethyl)pent-4-ynoic acid], for which the pEC50 in experiment [1] was 3.92. Besides, the pIC50 in experiment [2] was 3.00 to 4.00; in experiment [3], 4.00 to 5.00.
In the case of `COc1cccc(CCC(CCCc2ccccc2)C(=O)O)c1` (stereo not shown) [Example 29, 2-[2-(3-methoxyphenyl)ethyl]-5-phenylpentanoic acid], the pEC50 in experiment [1] was 3.78. Besides, the figures for the pIC50 in experiment [2] and in experiment [3] were 3.00 to 4.00 and 4.00 to 5.00, respectively.
For `O=C(O)C(CCCc1ccc(S(=O)(=O)Nc2ccccc2)cc1)CCc1ccccc1` (stereo not shown) [Example 40, 5-(4-[Anilinosulfonyl]phenyl)-2-(2-phenylethyl)pentanoic acid], in that order: 4.35, 4.00 to 5.00 and 4.00 to 5.00.
Turning to `O=C(O)C(CCCc1cccc2ccccc12)CCc1ccc(-c2cccs2)cc1` (stereo not shown) [Example 79, 5-(1-Naphthyl)-2-[2-(4′-thien-2-ylphenyl)ethyl]-pentanoic acid], the pEC50 in experiment [1] is 4.44. For the same compound, the pIC50 in experiment [2] was 3.00 to 4.00.
In turn, `O=C(O)C(CCCc1ccccc1)CCc1ccccn1` (stereo not shown) [Example 28, 5-Phenyl-2-(2-pyridin-2-ylethyl)pentanoic acid] gave a pEC50 in experiment [1] of 3.51. Moreover, the pIC50 in experiment [3] was 3.00 to 4.00.
For the compound `O=C(O)C(CCCc1ccccc1)CCc1ccc(-c2ccoc2)cc1` (stereo not shown) [Example 74, 2-{2-[4′-(3-Furyl)phenyl]ethyl}-5-phenylpentanoic acid], in experiment [1], the pEC50 was 4.02. Besides, in experiment [2], the negative-log IC50 (pIC50) is 4.00 to 5.00.
`O=C(O)C(CCCc1ccccc1)OCc1ccccc1` (stereo not shown) [Example 69, 2-(Benzyloxy)-5-phenylpentanoic acid]: in experiment [1], the pEC50 is 3.02. The pIC50 is 3.00 to 4.00 in experiment [2] and 4.00 to 5.00 in experiment [3].
